Reference: US20130150325A1, “3-(Fluorovinyl)pyrazoles and their use” (BAYER INTELLECTUAL PROPERTY GMBH, priority 2011, published 2013)

System: HCT 116 cells transfected with a luciferase reporter under the control of an HIF-responsive sequence
Test: HIF-luciferase assay
Assay type: cell-based
Details: Homo sapiens; HCT 116 HIF-luciferase reporter cells, hypoxia chamber (1% O2), 24 h; in some cases means of up to four individual determinations
Experimental: HCT 116 cells were transfected in a stable manner with a plasmid which contained a luciferase reporter under the control of an HIF-responsive sequence. These cells were sown in microtitre plates [20 000 cells/cavity in RPMI 1640 medium with 10% foetal calf serum (FCS) and 100 μg/ml of hygromycin]. Incubation was carried out overnight under standard conditions (5% CO2, 21% O2, 37° C., moistened). The following morning the cells were incubated with various concentrations of the test substances (0-10 μmol/l) in a hypoxia chamber (1% O2). After 24 h, Bright Glo reagent (Promega, Wisconsin, USA) was added in accordance with the manufacturer's instructions, and after 5 min the luminescence was measured. Cells which were incubated under normoxia served as background controls.
The IC50 values from this assay for representative working examples are listed in the following table (in same cases as means of up to four individual determinations): […]

`Cc1cc(/C=C(\F)c2ccc(OC(F)(F)F)cc2)nn1Cc1cccc(N2CC(O)C2)c1` [Example 113, 1-{3-[(3-{(Z)-2-Fluoro-2-[4-(trifluoromethoxy)phenyl]vinyl}-5-methyl-1H-pyrazol-1-yl)methyl]-phenyl}azetidin-3-ol] was tested, and the IC50 was 4 nM.

Compound `Cc1cc(/C(F)=C/c2ccc(OC(F)(F)F)cc2)nn1Cc1cccc(C(F)(F)CO)c1` [Example 61, 2,2-Difluoro-2-{3-[(3-{(Z)-1-fluoro-2-[4-(trifluoromethoxy)phenyl]vinyl}-5-methyl-1H-pyrazol-1-yl)methyl]phenyl}ethanol] has an IC50 of 4 nM.

`Cc1cc(/C(F)=C/c2ccc(C(C)(C)C(F)(F)F)cc2)nn1Cc1cccc(C2(CO)CC2)c1` [Example 57, (1-{3-[(3-{(Z)-1-Fluoro-2-[4-(1,1,1-trifluoro-2-methylpropan-2-yl)phenyl]vinyl}-5-methyl-1H-pyrazol-1-yl)methyl]phenyl}cyclopropyl)methanol] gave an IC50 of 1 nM.

In the case of `Cc1cc(/C(F)=C/c2ccc(C(F)(F)F)cc2)nn1Cc1cccc(C(=O)N2CCC(O)CC2)c1` [Example 36, {3-[(3-{(Z)-1-Fluoro-2-[4-(trifluoromethyl)phenyl]vinyl}-5-methyl-1H-pyrazol-1-yl)methyl]-phenyl}(4-hydroxypiperidin-1-yl)methanone], the IC50 is reported as 4 nM.

For `Cc1cc(/C(F)=C/c2ccc(OC(F)(F)F)cc2)nn1Cc1cccc(C(=O)N2CCN(C)CC2)c1` [Example 42, {3-[(3-{(Z)-1-Fluoro-2-[4-(trifluoromethoxy)phenyl]vinyl}-5-methyl-1H-pyrazol-1-yl)methyl]-phenyl}(4-methylpiperazin-1-yl)methanone], the IC50 was 4 nM.

Compound `CNc1ccc(Cn2nc(/C(F)=C/c3ccc(C(C)(C)C)cc3)cc2C)cn1` [Example 87, 5-({3-[(Z)-2-(4-tert-Butylphenyl)-1-fluorovinyl]-5-methyl-1H-pyrazol-1-yl}methyl)-N-methylpyridine-2-amine] has an IC50 of 0.7 nM.

For `Cc1cc(/C(F)=C/c2ccc(C3(C(F)(F)F)CC3)cc2)nn1Cc1cccc(C(=O)N2CCCC2)c1` [Example 29, [3-({3-[(Z)-1-Fluoro-2-{4-[1-(trifluoromethyl)cyclopropyl]phenyl}vinyl]-5-methyl-1H-pyrazol-1-yl}methyl)phenyl](pyrrolidin-1-yl)methanone], the IC50 was 5 nM.

Compound `Cc1cc(/C(F)=C/c2ccc(OC(F)(F)F)cc2)nn1Cc1cccc(C(=O)N2CCC(O)CC2)c1` [Example 32, {3-[(3-{(Z)-1-Fluoro-2-[4-(trifluoromethoxy)phenyl]vinyl}-5-methyl-1H-pyrazol-1-yl)-methyl]phenyl}(4-hydroxypiperidin-1-yl)methanone] has an IC50 of 4 nM.

`Cc1cc(/C(F)=C/c2ccc(SC(F)(F)F)cc2)nn1Cc1cccc(C2(CO)CC2)c1` [Example 56, {1-[3-({3-[(Z)-1-Fluoro-2-{4-[(trifluoromethyl)sulphanyl]phenyl}vinyl]-5-methyl-1H-pyrazol-1-yl}methyl)phenyl]cyclopropyl}methanol] was tested, and the IC50 was 2 nM.

With `CNc1ccc(Cn2nc(/C(F)=C/c3ccc(CN(C(C)C)C(C)C)cc3)cc2C)cn1` [Example 94, 5-({3-[(Z)-2-{4-[(Diisopropylamino)methyl]phenyl}-1-fluorovinyl]-5-methyl-1H-pyrazol-1-yl}-methyl)-N-methylpyridine-2-amine] the IC50 was 1 nM.

`COC(=O)c1cccc(Cn2nc(/C(F)=C/c3ccc(OC(F)(F)F)cc3)cc2C)c1` [Example 18, Methyl 3-[(3-{(Z)-1-fluoro-2-[4-(trifluoromethoxy)phenyl]vinyl}-5-methyl-1H-pyrazol-1-yl)methyl]benzoate] gave an IC50 of 20 nM.

In the case of `Cc1cc(/C(F)=C/c2ccc(C(C)(C)C(F)(F)F)cc2)nn1Cc1cccc(N2CCC(C#N)CC2)c1` [Example 10, 1-{3-[(3-{(Z)-1-Fluoro-2-[4-(1,1,1-trifluoro-2-methylpropan-2-yl)phenyl]vinyl}-5-methyl-1H-pyrazol-1-yl)methyl]phenyl}piperidine-4-carbonitrite], the IC50 is reported as 0.4 nM.

For `CNc1ccc(Cn2nc(/C=C(\F)c3ccc(OC(F)(F)F)cc3)cc2C)cn1` [Example 117, 5-[(3-{(Z)-2-Fluoro-2-[4-(trifluoromethoxy)phenyl]vinyl}-5-methyl-1H-pyrazol-1-yl)methyl]-N-methylpyridine-2-amine], the IC50 was 30 nM.

With `Cc1cc(/C(F)=C/c2ccc(C(F)(F)F)cc2)nn1Cc1cccc(C(=O)N2CCCC2)c1` [Example 30, {3-[(3-{(Z)-1-Fluoro-2-[4-(trifluoromethyl)phenyl]vinyl}-5-methyl-1H-pyrazol-1-yl)methyl]-phenyl}(pyrrolidin-1-yl)methanone] the IC50 was 6 nM.

Work on `CNc1ccc(Cn2nc(/C(F)=C/c3ccc(C(F)(F)F)cc3)cc2C)cn1` [Example 85, 5-[(3-{(Z)-1-Fluoro-2-[4-(trifluoromethyl)phenyl]vinyl}-5-methyl-1H-pyrazol-1-yl)methyl]-N-methylpyridine-2-amine] yielded an IC50 of 4 nM.

In the case of `Cc1cc(/C(F)=C/c2ccc(C(C)(C)C(F)(F)F)c(F)c2)nn1Cc1cccc(C2(CO)CC2)c1` [Example 58, (1-{3-[(3-{(Z)-1-Fluoro-2-[3-fluoro-4-(1,1,1-trifluoro-2-methylpropan-2-yl)phenyl]vinyl}-5-methyl-1H-pyrazol-1-yl)methyl]phenyl}cyclopropyl)methanol], the IC50 is reported as 2 nM.

In the case of `Cc1cc(/C=C(\F)c2ccc(OC(F)(F)F)cc2)nn1Cc1ccnc(N2CCN(C3CC3)CC2)c1` [Example 120, 1-Cyclopropyl-4-{4-[(3-{(Z)-2-fluoro-2-[4-(trifluoromethoxy)phenyl]vinyl}-5-methyl-1H-pyrazol-1-yl)methyl]pyridin-2-yl}piperazine], the IC50 is reported as 20 nM.

With `Cc1cc(/C(F)=C/c2ccc(OC(F)(F)F)cc2)nn1Cc1ccnc(N2CCN(C3CC3)CC2)c1` [Example 102, 1-Cyclopropyl-4-{4-[(3-{(Z)-1-fluoro-2-[4-(trifluoromethoxy)phenyl]vinyl}-5-methyl-1H-pyrazol-1-yl)methyl]pyridin-2-yl}piperazine] the IC50 was 0.5 nM.

Work on `Cc1cc(/C(F)=C/c2ccc(C3(C(F)(F)F)CC3)cc2)nn1Cc1cccc(N2CC(O)C2)c1` [Example 17, 1-[3-({3-[(Z)-1-Fluoro-2-{4-[1-(trifluoromethyl)cyclopropyl]phenyl}vinyl]-5-methyl-1H-pyrazol-1-yl}methyl)phenyl]azetidin-3-ol] yielded an IC50 of 1 nM.

`CC(=O)OC1(c2cccc(Cn3nc(/C(F)=C/c4ccc(OC(F)(F)F)cc4)cc3C)c2)CC1` [Example 43, 1-{3-[(3-{(Z)-1-Fluoro-2-[4-(trifluoromethoxy)phenyl]vinyl}-5-methyl-1H-pyrazol-1-yl)methyl]phenyl}cyclopropyl acetate] gave an IC50 of 2 nM.

`Cc1cc(/C(F)=C/c2ccc(C(C)(C)C(F)(F)F)cc2)nn1Cc1cccc(Br)c1` [Example 7, 1-(3-Bromobenzyl)-3-{(Z)-1-fluoro-2-[4-(1,1,1-trifluoro-2-methylpropan-2-yl)phenyl]vinyl}-5-methyl-1H-pyrazole] showed an IC50 of 40 nM.

`Cc1cc(/C(F)=C/c2ccc(OC(F)(F)F)cc2)nn1Cc1cccc(N2CCC(C#N)CC2)c1` [Example 9, 1-{3-[(3-{(Z)-1-Fluoro-2-[4-(trifluoromethoxy)phenyl]vinyl}-5-methyl-1H-pyrazol-1-yl)-methyl]phenyl}piperidine-4-carbonitrile] was tested, and the IC50 was 0.4 nM.

In the case of `CNc1ccc(Cn2nc(/C(F)=C/c3ccc([Si](C)(C)C)cc3)cc2C)cn1` [Example 86, 5-[(3-{(Z)-1-Fluoro-2-[4-(trimethylsilyl)phenyl]vinyl}-5-methyl-1H-pyrazol-1-yl)methyl]-N-methylpyridine-2-amine], the IC50 is reported as 0.3 nM.
